# According to patent US20240277637A1, “CAPSAICIN DERIVATIVES IN THE TREATMENT OF IDIOPATHIC PULMONARY FIBROSIS” (aXichem AB, priority 2021, published 2024):
# Key:
# [1] = tested on: human corneal epithelial cells; test: Proliferation assay, PDGF-stimulated corneal epithelial proliferation (Example 1); assay type: cell-based; settings: for IC50: Homo sapiens, Corneal epithelial cell, 10 ng/ml PDGF, 72 hours
# Experimental: (§1) Primary isolated human corneal epithelial cells; Normal, Human cells (ATCC® PCS-700-010™) were maintained in culture at 37° C. with 5% CO2 and 95% humidity in serum reduced (5% fetal calf serum) modified promocell media (MPM) supplemented with 4 ng/ml fibronectin (FN), 2 ng/ml human recombinant vascular endothelial growth factor (VEGF) and 4 ng/ml basic fibroblast growth factor (bFGF).
# (§2) Corneal cells were harvested by trypsinization at 37° C. and neutralized with trypsin-neutralizing solution. A suspension of 50,000 cells in MPM/DMEM was added to 25 ml flasks. The cells were incubated with phenylcapsaicin or SU9518 for 1 hour in cytokine-free medium at standard conditions and incubated for another 72 hours in the presence of final mediums (either with 10 ng/ml PDGF-AB+4 ng/ml FN, or with 2 ng/ml VEGF+4 ng/ml bFGF+4 ng/ml FN). The cells were then dispersed in trypsin, resuspended, and counted in a coulter counter.
# [2] = tested on: human bronchial epithelial cells; test: Clonogenic cell survival assay, bronchial epithelial cells with PDGF-AB (Example 2); assay type: cell-based
# Experimental: (§3) Primary isolated human bronchial epithelial cells (NHBE) (Normal, Human (ATCC® BEAS-2B™)) were cultured up to passage 6. […].
# A clonogenic cell survival assay determines the ability of a cell to proliferate indefinitely. The effects of phenylcapsaicin on clonogenic survival of bronchial epithelial cells was investigated by plating the cells with increasing numbers (10^2 to 5×10^4) in 25 cm^2 flasks. SU9518, a known inhibitor for PDGF which has shown the ability to reduce radiation-induced fibroblast and endothelial cell activation, was used as the positive control. The cells were incubated with 0-10 μM of phenylcapsaicin and SU9518 separately in the presence of 10 ng/ml PDGF-AB. The flasks were returned to the incubator for 14 days, after which they were stained with crystal violet. The colonies were counted, and the surviving percentage was determined for clonogenic survival after correcting for plating efficiency.
# [3] = tested on: human corneal epithelial cells; test: Proliferation assay, VEGF+bFGF-stimulated corneal epithelial proliferation (Example 1); assay type: cell-based; settings: Corneal epithelial cell, highest dose tested 10 uM, 72 hours, read-out: IC50, VEGF+bFGF-induced proliferation
# Experimental: as §1, §2
# [4] = tested on: human bronchial epithelial cells; test: Proliferation assay, PDGF-stimulated bronchial epithelial proliferation (Example 2); assay type: cell-based; settings: for IC50: Homo sapiens, Epithelial cell, 10 ng/ml PDGF, 72 hours
# Experimental: as §3
# as §2, with “Bronchial” for “Corneal”, “trypsinisation” for “trypsinization”, “neutralised” for “neutralized”, “trypsin-neutralising” for “trypsin-neutralizing”
# [5] = tested on: human bronchial epithelial cells; test: Clonogenic cell survival assay, bronchial epithelial cells with PDGF-AB (Example 4); assay type: cell-based; settings: 10 ng/ml PDGF-AB, 14 days
# Experimental: Primary isolated human bronchial epithelial cells (NHBE) were used in this assay sourced from the American Tissue Culture Collection (Normal, Human (ATCC® BEAS-2B™)) and were cultured up to passage 6. […].
# The effects of Phenylcapsaicin (2) on clonogenic survival of bronchial epithelial cells, by plating the cells with increasing numbers (102 to 5×104) in 25 cm^2 flasks were investigated. SU9518* and Phenylcapsaicin were used as positive controls. The cells were incubated with 0-10 μM (3% DMSO aqueous) of Phenylcapsaicin, SU9518, and compounds 8-12 separately in the presence of 10 ng/ml PDGF-AB (Sigma Aldrich). The flasks were returned to the incubator for 14 days, after which they were stained with crystal violet (Sigma Aldrich). The colonies were counted and the surviving percentage was determined for clonogenic survival after correcting for plating efficiency. The synthetic analogs were all calculated at 100% purity for molar concentrations.
# [6] = tested on: human corneal epithelial cells; test: Clonogenic cell survival assay, corneal epithelial cells with PDGF-AB (Example 1); assay type: cell-based; settings: 10 ng/ml PDGF-AB, 14 days
# Experimental: as §1
# A clonogenic cell survival assay determines the ability of a cell to proliferate indefinitely. The effects of phenylcapsaicin (2) on clonogenic survival of corneal epithelial cells was investigated by plating the cells with increasing numbers (102 to 5×104) in 25 cm^2 flasks. SU9518, a known inhibitor PDGF that has shown the ability to reduce radiation-induced fibroblast and endothelial cell activation, was used as the positive control. The cells were incubated with 0-10 μM of phenylcapsaicin and SU9518 separately in the presence of 10 ng/ml PDGF-AB. The flasks were returned to the incubator for 14 days, after which they were stained with crystal violet. The colonies were counted, and the surviving
# [7] = tested on: human bronchial epithelial cells; test: Proliferation assay, VEGF+bFGF-stimulated bronchial epithelial proliferation (Example 2); assay type: cell-based; settings: 72 hours
# Experimental: as §3
# as §2, with “Bronchial” for “Corneal”, “trypsinisation” for “trypsinization”, “neutralised” for “neutralized”, “trypsin-neutralising” for “trypsin-neutralizing”
# [8] = Acute inhalation toxicity test on rats; settings: both sexes, rat, in vivo, inhaled; single exposure via inhalation, nose-only; male and female rats; based on active substance
# Text: These findings strongly imply that phenylcapsaicin may be a useful drug against IPF, slowing down or reducing scarring of the lung tissue. Such a reduction in scarring may lead to a delayed progression of IPF and/or ease the symptoms of IPF, such as respiratory difficulty and/or coughing. […] This finding is an indication that the compounds of the invention will have a low toxicity in use against IPF using inhalation as the route of administration.
# [9] = read-out: IC50, PDGF-induced epithelial proliferation
# [10] = read-out: IC50, PDGF-induced proliferation
compound,measurement,setting,value
"COc1cc(CNC(=O)CCCCC#Cc2ccccc2)ccc1O [Compound 2, N-(4-hydroxy-3-methoxybenzyl)-7-phenylhept-6-ynamide]",IC50,[1]; [9],~1 µM
same,IC50,[1]; [10],~1 µM
same,selectivity for PDGF pathway,"[1]; PDGF- versus VEGF+bFGF-induced proliferation, corneal cells",work selectively on the PDGF pathway
same,effect on clonogenic survival,"[2]; 0-10 μM, 10 ng/ml PDGF-AB, 14 days",dose-dependent inhibitory effect on survival
same,surviving fraction of epithelial cells,"[2]; 5 μM, 10 ng/ml PDGF-AB, 14 days",35%
same,survival rate of the cells,"[2]; 10 μM, after 14 days, in the presence of PDGF",35%
same,IC50,[3],> 10 µM
same,IC50,[4]; [9],~1 µM
same,IC50,[4]; [10],~2 µM
same,selectivity for PDGF pathway,"[4]; PDGF- versus VEGF+bFGF-induced proliferation, bronchial cells","work selectively on the PDGF pathway, although at a lower selectivity than in corneal cells"
same,effect on clonogenic survival / PDGF inhibition (words),[5]; 0-10 μM,reduction in the survival fraction of endothelial cells in a dose dependent manner
same,Clonogenic Survival Assay (percent),[5]; 0.10 uM,83%
same,Clonogenic Survival Assay (percent),[5]; 0.50 uM,59%
same,Clonogenic Survival Assay (percent),[5]; 1.00 uM,41%
same,Clonogenic Survival Assay (percent),[5]; 2.00 uM,35%
same,Clonogenic Survival Assay (percent),[5]; 5.00 uM,35%
same,Clonogenic Survival Assay (percent),[5]; 10.00 uM,32%
same,effect on clonogenic survival,[6]; 0-10 μM,dose-dependant inhibitory effect on survival
same,surviving fraction of epithelial cells,[6]; 5 μM,27%
same,"IC75, epithelial proliferation stimulated by VEGF and bFGF",[7],~5 µM
same,IC50,"[7]; Homo sapiens, Epithelial cell, highest dose tested 10 uM, read-out: IC50, VEGF+bFGF-induced proliferation",> 10 µM
same,LC50,[8],> 5.65 µg/mL
